Measured values: US12655116B2, “Substituted isophthalic acid diamides” (Bayer Aktiengesellschaft, priority 2020, dated 2026)

Legend:
[1] = system: ABUTH; experiment: Post-emergence herbicidal action against ABUTH; format: in vivo, Abutilon theophrasti; conditions: Abutilon theophrasti, 504 h, visual assessment about 3 weeks after treatment vs untreated controls; for pest or weed control at 5 g/ha: dosage 5 g/ha; for pest or weed control at 20 g/ha: dosage 20 g/ha
Method in brief: (§1)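 Herbicidal effect was scored visually in percent after about 3 weeks in the greenhouse. Plants had been raised in sandy loam and treated post-emergence at the one-leaf stage with formulated compound at 600 to 800 l/ha water plus 0.2% wetting agent.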

[2] = system: ALOMY; experiment: Post-emergence herbicidal action against ALOMY; format: in vivo, Alopecurus myosuroides; conditions: Alopecurus myosuroides, 504 h, visual assessment about 3 weeks after treatment vs untreated controls; for pest or weed control at 20 g/ha: dosage 20 g/ha
Method in brief: as §1

[3] = system: PHBPU; experiment: Post-emergence herbicidal action against PHBPU; format: in vivo, Pharbitis purpurea; conditions: Ipomoea purpurea, 504 h; for pest or weed control at 20 g/ha: dosage 20 g/ha; for pest or weed control at 5 g/ha: dosage 5 g/ha
Method in brief: as §1

[4] = system: VERPE; experiment: Post-emergence herbicidal action against VERPE; format: in vivo, Veronica persica; conditions: Veronica persica, 504 h, 20 g/ha
Method in brief: as §1

[5] = system: AMARE; experiment: Post-emergence herbicidal action against AMARE; format: in vivo, Amaranthus retroflexus; conditions: Amaranthus retroflexus, 504 h, 20 g/ha, visual assessment about 3 weeks after treatment, 100% = plants have died, 0% = like control plants
Method in brief: as §1

[6] = system: LOLRI; experiment: Pre-emergence herbicidal action against LOLRI; format: in vivo, Lolium rigidum; conditions: Lolium rigidum, 504 h, 80 g/ha
Method in brief: (§2)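 Herbicidal effect was assessed 3 weeks after treatment by visual comparison with untreated controls, 100% denoting dead plants. Aqueous WP or EC preparations had been applied at 600 to 800 l/ha with 0.2% wetting agent to the soil covering freshly sown seeds.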

[7] = system: MATIN; experiment: Post-emergence herbicidal action against MATIN; format: in vivo, Matricaria inodora; conditions: Tripleurospermum inodorum, 504 h, dosage 20 g/ha
Method in brief: as §1

[8] = system: AMARE; experiment: Pre-emergence herbicidal action against AMARE; format: in vivo, Amaranthus retroflexus; conditions: Amaranthus retroflexus, 504 h, scored visually after 3 weeks vs untreated controls, 100% = plants have died, 0% = like control plants
Method in brief: as §2

[9] = system: VIOTR; experiment: Pre-emergence herbicidal action against VIOTR; format: in vivo, Viola tricolor; conditions: Viola tricolor, 504 h; for pest or weed control at 80 g/ha: dosage 80 g/ha; for pest or weed control at 20 g/ha: dosage 20 g/ha
Method in brief: as §2

[10] = system: SETVI; experiment: Post-emergence herbicidal action against SETVI; format: in vivo, Setaria viridis; conditions: Setaria viridis, 504 h; for pest or weed control at 5 g/ha: dosage 5 g/ha; for pest or weed control at 20 g/ha: dosage 20 g/ha
Method in brief: as §1

[11] = system: AVEFA; experiment: Pre-emergence herbicidal action against AVEFA; format: in vivo, Avena fatua; conditions: Avena fatua, 504 h, pre-emergence
Method in brief: as §2

[12] = system: ECHCG; experiment: Pre-emergence herbicidal action against ECHCG; format: in vivo, Echinochloa crus-galli; conditions: Echinochloa crus-galli, 504 h
Method in brief: as §2

[13] = system: VERPE; experiment: Pre-emergence herbicidal action against VERPE; format: in vivo, Veronica persica; conditions: Veronica persica, 504 h; for pest or weed control at 80 g/ha: dosage 80 g/ha
Method in brief: as §2

[14] = system: ABUTH; experiment: Pre-emergence herbicidal action against ABUTH; format: in vivo, Abutilon theophrasti; conditions: Abutilon theophrasti, 504 h; for pest or weed control at 80 g/ha: scored visually after 3 weeks vs untreated controls (100% = plants have died, 0% = like control plants); for pest or weed control at 20 g/ha: dosage 20 g/ha, scored visually after 3 weeks vs untreated controls, 100% = plants have died, 0% = like control plants, read-out: Pre-emergence action against ABUTH (herbicidal activity in percent)
Method in brief: as §2

[15] = system: ECHCG; experiment: Post-emergence herbicidal action against ECHCG; format: in vivo, Echinochloa crus-galli; conditions: Echinochloa crus-galli, 504 h; for pest or weed control at 20 g/ha: dosage 20 g/ha
Method in brief: as §1

[16] = system: MATIN; experiment: Pre-emergence herbicidal action against MATIN; format: in vivo, Matricaria inodora; conditions: Tripleurospermum inodorum, 504 h; for pest or weed control at 20 g/ha: dosage 20 g/ha; for pest or weed control at 80 g/ha: dosage 80 g/ha
Method in brief: as §2

[17] = system: ALOMY; experiment: Pre-emergence herbicidal action against ALOMY; format: in vivo, Alopecurus myosuroides; conditions: Alopecurus myosuroides, 504 h, pre-emergence; for pest or weed control at 80 g/ha: scored visually after 3 weeks vs untreated controls (100% = plants have died, 0% = like control plants); for pest or weed control at 20 g/ha: scored visually after 3 weeks, 100% = plants have died, 0% = like control plants
Method in brief: as §2

[18] = system: DIGSA; experiment: Post-emergence herbicidal action against DIGSA; format: in vivo, Digitaria sanguinalis; conditions: Digitaria sanguinalis, 504 h
Method in brief: as §1

[19] = system: VIOTR; experiment: Post-emergence herbicidal action against VIOTR; format: in vivo, Viola tricolor; conditions: Viola tricolor, 504 h
Method in brief: as §1

[20] = system: SETVI; experiment: Pre-emergence herbicidal action against SETVI; format: in vivo, Setaria viridis; conditions: Setaria viridis, 504 h; for pest or weed control at 80 g/ha: dosage 80 g/ha
Method in brief: as §2

[21] = system: DIGSA; experiment: Pre-emergence herbicidal action against DIGSA; format: in vivo, Digitaria sanguinalis; conditions: Digitaria sanguinalis, 504 h; for pest or weed control at 20 g/ha: dosage 20 g/ha; for pest or weed control at 80 g/ha: dosage 80 g/ha
Method in brief: as §2

[22] = system: PHBPU; experiment: Pre-emergence herbicidal action against PHBPU; format: in vivo, Pharbitis purpurea; conditions: Ipomoea purpurea, 504 h, dosage 80 g/ha
Method in brief: as §2

[23] = system: POLCO; experiment: Pre-emergence herbicidal action against POLCO; format: in vivo, Polygonum convolvulus; conditions: Fallopia convolvulus, 504 h, dosage 80 g/ha
Method in brief: as §2

Row | Structure (SMILES) | pest or weed control at 5 g/ha [1] [%] | pest or weed control at 20 g/ha [1] [%] | pest or weed control at 20 g/ha [2] [%] | pest or weed control at 20 g/ha [3] [%] | pest or weed control at 20 g/ha [4] [%] | pest or weed control at 20 g/ha [5] [%] | pest or weed control at 80 g/ha [6] [%] | pest or weed control at 20 g/ha [8] [%] | pest or weed control at 80 g/ha [8] [%] | pest or weed control at 80 g/ha [9] [%] | pest or weed control at 5 g/ha [10] [%] | pest or weed control at 20 g/ha [10] [%] | pest or weed control at 80 g/ha [11] [%] | pest or weed control at 80 g/ha [12] [%] | pest or weed control at 80 g/ha [13] [%] | pest or weed control at 80 g/ha [14] [%] | pest or weed control at 80 g/ha [16] [%] | pest or weed control at 80 g/ha [17] [%] | pest or weed control at 20 g/ha [17] [%] | pest or weed control at 80 g/ha [20] [%] | further results
1 | CNC(=O)c1c(Br)ccc(C(=O)Nc2nnnn2C)c1Cl [Example 1-177] | 90 | 90 | 90 | 80 | 80 | 100 | 90 | 100 | 100 | 100 | 90 | 90 | 100 | 100 | 100 | 100 | 100 | 100 | 80 | 100 | pest or weed control at 20 g/ha [7]: 90%; pest or weed control at 20 g/ha ([11]; 20 g/ha, scored visually after 3 weeks, 100% = plants have died, 0% = like control plants): 80%; pest or weed control at 20 g/ha ([12]; 20 g/ha): 80%; pest or weed control at 20 g/ha [15]: 90%; pest or weed control at 20 g/ha [16]: 90%; pest or weed control at 5 g/ha [18]: 90%; pest or weed control at 20 g/ha [18]: 90%; pest or weed control at 5 g/ha ([19]; 5 g/ha): 90%; pest or weed control at 20 g/ha [19]: 90%; pest or weed control at 20 g/ha [21]: 100%; pest or weed control at 80 g/ha [21]: 100%; pest or weed control at 80 g/ha [22]: 80%
2 | Cc1nnc(NC(=O)c2ccc(C(F)(F)F)c(C(=O)NC(C)C)c2C)o1 [Example 6-255] | 90 | 90 | 90 | 90 | 80 | 100 | 80 | 100 | 100 | 90 | 80 | 90 | 80 | 100 | 90 | 100 | 100 | 100 | 90 | 100 | pest or weed control at 5 g/ha [3]: 90%; pest or weed control at 20 g/ha [9]: 80%; pest or weed control at 20 g/ha [14]: 100%; pest or weed control at 5 g/ha ([15]; dosage 5 g/ha): 90%; pest or weed control at 20 g/ha [15]: 100%; pest or weed control at 5 g/ha [18]: 90%; pest or weed control at 20 g/ha [18]: 100%; pest or weed control at 20 g/ha ([20]; dosage 20 g/ha): 100%; pest or weed control at 20 g/ha [21]: 100%; pest or weed control at 80 g/ha [21]: 100%; pest or weed control at 80 g/ha [22]: 90%
3 | CCNC(=O)c1c(Br)ccc(C(=O)Nc2nnnn2CC)c1Br [Example 2-342] | 80 | 90 | 90 | 90 |  | 100 | 80 | 90 | 100 | 100 | 90 | 90 | 90 | 80 | 80 | 100 | 100 | 100 | 90 | 100 | pest or weed control at 5 g/ha ([2]; dosage 5 g/ha): 90%; pest or weed control at 5 g/ha [3]: 80%; pest or weed control at 80 g/ha [23]: 80%; pest or weed control at 20 g/ha [9]: 90%; pest or weed control at 20 g/ha ([13]; dosage 20 g/ha): 80%; pest or weed control at 20 g/ha [14]: 100%; pest or weed control at 20 g/ha [16]: 90%; pest or weed control at 20 g/ha [19]: 80%
